{
  "source": "patent US8557823B2",
  "about": "“Family of PFKFB3 inhibitors with anti-neoplastic activities” (Advanced Cancer Therapeutics, LLC, priority 2007, dated 2013)",
  "key": {"[1]": {"test_system": "MDA-MB231 breast adenocarcinoma cells", "test": "In vitro growth inhibition, MDA-MB231", "format": "cell-based", "settings": "Homo sapiens, MDA-MB-231", "experimental": "(§1) The K562, HL-60, MDA-MB231, and melanoma (CRL-11174) human cancer cell lines were purchased from ATCC (American Tissue Type Culture Collection, Manassas, Va., United States of America). HeLa, A549, Lewis Lung Carcinoma, MDA-MB231, and melanoma cells were grown in Dulbecco's Modified Eagle Medium (DMEM) (Hyclone, Logan, Utah, United States of America) supplemented with 10% fetal bovine serum (Hyclone, Logan, Utah, United States of America) and 50 μg/mL gentamicin sulfate (Invitrogen, Carlsbad, Calif., United States of America). The HL-60, K562, and Jurkat cell lines were grown in RPMI-1640 medium (Hyclone, Logan, Utah, United States of America) supplemented with 10% fetal bovine serum and 50 μg/mL gentamicin sulfate. […]\n(§2) Cells were collected 48 hours post-treatment, and cell number and viability were determined by trypan blue exclusion. […]"}, "[2]": {"test_system": "LLC (Lewis Lung Carcinoma) cells", "test": "In vitro growth inhibition, LLC", "format": "cell-based", "settings": "mouse LLC", "experimental": "as §1, §2"}, "[3]": {"test_system": "A549 lung carcinoma cells", "test": "In vitro growth inhibition, A549", "format": "cell-based", "settings": "human A549", "experimental": "as §1, §2"}, "[4]": {"test_system": "Lewis Lung Carcinoma xenografts", "test": "Lewis Lung Carcinoma xenografts in C57/Blk6 mice", "format": "in vivo", "settings": "0.07 mg/g IP once daily, 14 days", "experimental": "FIG. 7A is a graph showing the effects of 3PO treatment on the growth of Lewis Lung Carcinoma tumor xenografts in C57/Blk6 mice. Tumors were measured daily using blunt end Vernier calipers, and mice with established tumors (130-190 mg) were blindly randomized into either a DMSO control group (•, n=11) or a 3PO treatment group (∘, n=14). Experimental mice were weighed and given daily intraperitoneal (i.p.) injections of either 50 μL DMSO or 0.07 mg/g 3PO in 50 μL DMSO at the indicated time points. Arrows (↓) represent control or 3PO daily administrations. Statistically significant difference between DMSO and 3PO groups was obtained after initial injection (Day 2, p-value<0.0003).\n(§3) Exponentially growing MDA-MB231 and HL-60 cells were collected in appropriate medium, washed twice and resuspended in PBS at a concentration of 20×10^7 cells/mL. […] Body weight and tumor growth were monitored daily throughout the study. Tumor masses were determined by measurement with Vernier calipers using the formula: mass (mg)=[width (mm^2)×length (mm)]/2. […]\n(§4) The first tumor model tested consisted of mouse Lewis Lung Carcinoma xenografts grown in C57/Blk6 mice. For this study, mice were given IP injections of either DMSO or the calculated dose of 1 once daily for the duration of the study (14 days). […]"}, "[5]": {"test": "Toxicity studies, highest tolerated dose", "format": "in vivo, mice", "settings": "intraperitoneal (IP) injection in DMSO"}, "[6]": {"test_system": "HL-60 leukemia cell xenografts", "test": "HL-60 leukemia xenografts in Balb/c nude mice", "format": "in vivo", "settings": "0.07 mg/g IP, two daily injections followed by seven days off", "experimental": "FIG. 7C is a graph showing the effects of 3PO treatment on the growth of established HL-60 acute promyelocytic leukemia xenografts in Balb/c athymic mice. Tumors were measured daily using blunt end Vernier calipers, and mice with established tumors (130-190 mg) were blindly randomized into either a DMSO control group (•, n=11) or a 3PO treatment group (∘, n=12). Experimental mice were weighed and given intraperitoneal (i.p.) injections of either 50 μL DMSO or 0.07 mg/g 3PO in 50 μL DMSO according to a cyclical dosing regimen of two sequential daily injections of DMSO or 3PO followed by seven day rest period for the duration of the study (14 days). Arrows (↓) represent control or 3PO administrations. Statistical difference was obtained after initial injection with a p-value<0.0001.\nas §3, §4"}},
  "data": [
    {"smiles": "O=C(/C=C/c1cccnc1)c1ccncc1", "note": "[Compound 1, 3-(3-pyridinyl)-1-(4-pyridinyl)-2-propen-1-one]", "values": [
      {"measurement": "IC50", "setting": "[1]", "value": 4.7, "unit": "µM"},
      {"measurement": "IC50", "setting": "[2]", "value": 19, "unit": "µM"},
      {"measurement": "IC50", "setting": "[3]", "value": 24, "unit": "µM"},
      {"measurement": "suppression of xenograft growth compared to DMSO control", "setting": "[4]", "value": 73, "unit": "%"},
      {"measurement": "highest tolerated dose producing no phenotypic side effects", "setting": "[5]", "value": 0.07, "unit": "mg/g"},
      {"measurement": "inhibition of tumor growth compared to DMSO controls", "setting": "[6]", "value": "> 74", "unit": "%"}
    ]}
  ]
}
